In patent publication EP1247803A2, “Indolinone compounds suitable for modulation of protein kinases” (Sugen, Inc., priority 1996, dated 1998):

Legend:
FLK-1 receptor = molecular target: T1, FLK-1 receptor (Mus musculus, UniProt P35918); test: FLK-1 ELISA (kinase activity of the FLK-1 receptor in FLK-1/NIH3T3 cells, VEGF stimulated); format: cell-based; design: concentration or dose not given beside the values
T1 construct: expressed in transfected cells; host or cells: NIH3T3 C7#3
In short: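 NIH3T3 C7#3 cells expressing FLK-1 were seeded at 25.000 cells/well, serum-starved overnight in 0.1% FBS, then treated with compound for two hours at 37°C (final DMSO 0.5%) before VEGF stimulation. Receptor was captured on anti-rabbit IgG-coated ELISA plates bearing affinity-purified anti-FLK-1 antiserum.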

PDGF-R = PDGF-R (Homo sapiens, UniProt P09619); test: PDGF-R ELISA; format: cell-based
Sequence of PDGF-R (P09619 33-1106, species assumed): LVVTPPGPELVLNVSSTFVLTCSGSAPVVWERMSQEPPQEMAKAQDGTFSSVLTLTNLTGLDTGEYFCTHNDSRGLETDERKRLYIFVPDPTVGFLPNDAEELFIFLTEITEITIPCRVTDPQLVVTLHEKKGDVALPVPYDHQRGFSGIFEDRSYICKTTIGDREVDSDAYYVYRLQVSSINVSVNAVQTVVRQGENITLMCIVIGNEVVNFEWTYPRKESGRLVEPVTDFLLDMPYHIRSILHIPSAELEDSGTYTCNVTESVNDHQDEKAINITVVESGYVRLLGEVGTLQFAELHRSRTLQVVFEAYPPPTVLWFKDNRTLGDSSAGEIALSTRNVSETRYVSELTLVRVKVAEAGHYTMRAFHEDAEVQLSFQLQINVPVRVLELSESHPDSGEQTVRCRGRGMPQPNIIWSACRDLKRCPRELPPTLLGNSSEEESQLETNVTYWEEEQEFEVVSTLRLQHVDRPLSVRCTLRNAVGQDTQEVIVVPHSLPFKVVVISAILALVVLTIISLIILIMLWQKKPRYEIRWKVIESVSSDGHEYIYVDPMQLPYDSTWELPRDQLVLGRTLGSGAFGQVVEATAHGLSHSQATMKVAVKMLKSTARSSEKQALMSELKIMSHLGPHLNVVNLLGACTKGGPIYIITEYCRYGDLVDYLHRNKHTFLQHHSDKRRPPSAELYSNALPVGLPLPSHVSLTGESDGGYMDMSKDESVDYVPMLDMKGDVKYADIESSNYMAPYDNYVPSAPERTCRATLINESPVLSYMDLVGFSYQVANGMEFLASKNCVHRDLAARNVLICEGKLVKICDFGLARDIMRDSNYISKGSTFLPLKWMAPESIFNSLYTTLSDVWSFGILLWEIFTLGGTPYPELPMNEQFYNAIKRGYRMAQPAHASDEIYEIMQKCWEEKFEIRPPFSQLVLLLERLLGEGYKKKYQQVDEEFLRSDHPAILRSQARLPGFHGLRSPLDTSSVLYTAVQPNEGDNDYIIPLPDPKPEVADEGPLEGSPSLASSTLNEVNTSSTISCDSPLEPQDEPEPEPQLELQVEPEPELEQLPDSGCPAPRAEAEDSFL
Excerpt: A PDGF-R ELISA is described in International Patent Publication No. WO 96/40116, published December 19, 1996 by Tang et al.

MET = MET biochemical kinase assay; design: species or system human; concentration or dose not given beside the values
In short: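 In this format, tyrosine phosphorylation of plate-captured human MET is followed in vitro after compound addition in ATP/divalent-cation buffer, detected by anti-phosphotyrosine-HRP with TMB substrate.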

T1 sequence (P35918 20-1345): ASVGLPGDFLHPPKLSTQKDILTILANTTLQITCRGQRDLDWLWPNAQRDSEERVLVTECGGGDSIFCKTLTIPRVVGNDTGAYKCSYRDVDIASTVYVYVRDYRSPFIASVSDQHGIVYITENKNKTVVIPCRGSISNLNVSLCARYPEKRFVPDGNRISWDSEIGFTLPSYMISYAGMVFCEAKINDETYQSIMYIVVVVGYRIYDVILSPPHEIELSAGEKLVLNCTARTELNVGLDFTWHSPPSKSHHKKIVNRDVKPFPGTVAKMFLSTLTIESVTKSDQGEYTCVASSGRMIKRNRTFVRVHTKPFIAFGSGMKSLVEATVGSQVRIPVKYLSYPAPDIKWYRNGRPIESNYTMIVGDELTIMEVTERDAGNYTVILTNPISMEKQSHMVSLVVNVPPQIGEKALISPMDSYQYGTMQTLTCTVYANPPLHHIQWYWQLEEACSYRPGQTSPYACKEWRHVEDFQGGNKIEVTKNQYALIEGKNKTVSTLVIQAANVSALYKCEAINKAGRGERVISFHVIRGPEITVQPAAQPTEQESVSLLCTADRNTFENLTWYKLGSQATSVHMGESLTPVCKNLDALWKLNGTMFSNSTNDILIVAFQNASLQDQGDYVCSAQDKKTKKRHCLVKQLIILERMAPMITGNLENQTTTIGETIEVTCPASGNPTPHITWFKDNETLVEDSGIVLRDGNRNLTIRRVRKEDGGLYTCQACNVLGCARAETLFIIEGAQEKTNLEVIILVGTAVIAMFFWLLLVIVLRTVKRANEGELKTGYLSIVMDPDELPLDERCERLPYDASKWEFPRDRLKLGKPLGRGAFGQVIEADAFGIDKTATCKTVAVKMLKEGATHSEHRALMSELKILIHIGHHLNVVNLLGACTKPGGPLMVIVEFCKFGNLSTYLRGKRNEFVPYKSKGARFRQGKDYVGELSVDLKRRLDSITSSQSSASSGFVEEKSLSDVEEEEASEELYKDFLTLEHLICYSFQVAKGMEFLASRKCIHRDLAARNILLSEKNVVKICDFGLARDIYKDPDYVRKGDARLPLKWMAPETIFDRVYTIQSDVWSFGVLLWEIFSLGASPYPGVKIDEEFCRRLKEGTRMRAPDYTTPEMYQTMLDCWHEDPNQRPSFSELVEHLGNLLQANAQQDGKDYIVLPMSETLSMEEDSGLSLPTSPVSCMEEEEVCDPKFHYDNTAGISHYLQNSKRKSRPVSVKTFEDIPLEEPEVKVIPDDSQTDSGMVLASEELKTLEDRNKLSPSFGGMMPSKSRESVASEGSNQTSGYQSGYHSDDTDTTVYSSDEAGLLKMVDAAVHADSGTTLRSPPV

Compound	Fik Kinase %Inhibition (FLK-1 receptor) [%]	PDGF Kinase %Inhibition (PDGF-R) [%]	Met Kinase % Inhibition (MET) [%]
COc1cccc(OC)c1C=C1C(=O)Nc2ccc(S(=O)(=O)Nc3ccc(C(F)(F)F)cc3)cc21 [10728/E03]	13.2	12.0	11.9
CNS(=O)(=O)c1ccc2c(c1)C(=Cc1cccc(Oc3ccccc3)c1)C(=O)N2 [10729/D06]	0.2	2.7	30.2
CSc1ccc(C=C2C(=O)Nc3ccc(I)cc32)cc1 [10729/B04]	0.1	-22.7	43.8
COc1ccc(C=C2C(=O)Nc3ccc(I)cc32)c2ccccc12 [10729/B03]	11.2	-9.4	57.3
Cc1c(Br)ccc2c1C(=CC1C=CCCC1)C(=O)N2 (stereo not drawn) [10729/C11]	10.4	-17.4	41.3
COc1ccc(C=C2C(=O)Nc3c(Br)cc(Br)cc32)c2ccccc12 [10729/A03]	4.7	1.9	27.5
COc1ccc(C=C2C(=O)Nc3ccc(Br)c(C)c32)c2ccccc12 [10729/C03]	11.0	13.7	13.5
CNS(=O)(=O)c1ccc2c(c1)C(=Cc1cc(C(F)(F)F)ccc1F)C(=O)N2 [10728/D08]	13.5	2.7	34.7
O=C1Nc2ccc(CCCl)cc2C1=Cc1cccc(C(F)(F)F)c1F [10728/G07]	22.6	-17.3	42.4
CSc1ccc(C=C2C(=O)Nc3ccc(Br)c(C)c32)cc1 [10729/C04]	-2.5	4.2	20.7
O=C(O)COc1ccccc1C=C1C(=O)Nc2ccc(S(=O)(=O)Nc3ccc(C(F)(F)F)cc3)cc21 [10728/E10]	24.7	13.8	57.2
COc1cc(C=C2C(=O)Nc3ccc(S(=O)(=O)Nc4ccc(C(F)(F)F)cc4)cc32)cc(OC)c1 [10728/E04]	5.5	23.2	25.6
O=C1Nc2ccc(I)cc2C1=Cc1cccc(Oc2ccccc2)c1 [10729/B06]	2.0	-19.2	61.1
COc1cc(C=C2C(=O)Nc3ccc(S(=O)(=O)Nc4ccc(C(F)(F)F)cc4)cc32)cc2c1OCO2 [10728/E11]	16.3	8.9	53.1
COc1ccc(OC)c(C=C2C(=O)Nc3ccc(S(=O)(=O)Nc4ccc(C(F)(F)F)cc4)cc32)c1 [10728/E02]	5.4	15.2	5.4
O=C1Nc2c(Br)cc(Br)cc2C1=Cc1ccncc1 [10729/A09]	0.4	11.0	80.3
O=C1Nc2ccc(S(=O)(=O)Nc3ccc(C(F)(F)F)cc3)cc2C1=Cc1cccc(C(F)(F)F)c1F [10728/E07]	9.6	28.0	79.8
COc1cccc(OC)c1C=C1C(=O)Nc2ccc(CCCl)cc21 [10728/G03]	14.3	-8.4	8.8
O=C1Nc2c(Br)cc(Br)cc2C1=CC1C=CCCC1 (stereo not drawn) [10729/A11]	4.9	-11.7	49.9
O=C1Nc2ccc(S(=O)(=O)Nc3ccc(C(F)(F)F)cc3)cc2C1=Cc1c(F)cccc1C(F)(F)F [10728/E09]	9.0	22.3	40.0
Cc1c(Br)ccc2c1C(=Cc1cccc(Oc3ccccc3)c1)C(=O)N2 [10729/C06]	3.8	3.1	15.2
CNS(=O)(=O)c1ccc2c(c1)C(=Cc1sccc1C)C(=O)N2 [10729/D05]	2.2	2.3	28.1
Cc1c(Br)ccc2c1C(=Cc1ccc(N3CCCC3)cc1)C(=O)N2 [10729/C10]	2.5	3.5	15.8
COc1ccc2ccccc2c1C=C1C(=O)Nc2ccc(Br)c(C)c21 [10729/C02]	6.0	9.1	18.2
Cc1ccsc1C=C1C(=O)Nc2c(Br)cc(Br)cc21 [10729/A05]	-17.7	-6.8	38.8
O=C1Nc2ccc(I)cc2C1=Cc1ccc(N2CCCC2)cc1 [10729/B10]	-0.7	-13.9	32.6
O=C1Nc2c(Br)cc(Br)cc2C1=Cc1ccccn1 [10729/A07]	-10.0	-36.7	51.1
CNS(=O)(=O)c1ccc2c(c1)C(=Cc1ccc(OC)c3ccccc13)C(=O)N2 [10729/D03]	15.3	14.1	22.6
COc1cc(N(C)C)ccc1C=C1C(=O)Nc2ccc(CCCl)cc21 [10728/G05]	9.4	-4.4	63.1
O=C1Nc2ccc(CCCl)cc2C1=Cc1c(F)cccc1C(F)(F)F [10728/G09]	6.8	6.3	22.2
